Experimental data taken from PubChem BioAssay AID2124 (Sanford-Burnham Center for Chemical Genomics, 2009).
Records with an inconclusive call do not appear. The source made the active and inactive calls. How the calls were made is not given here; tested in MIN6 cells.

Assay: GFP-wavelength compound autofluorescence in cells – imaging, high-content imaging, artefact control, dose response (AID 2124);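 further: cells exposed to compound for 48 hours before fixing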
Settings: cells, GFP-channel autofluorescence, high-content imaging, at 10 µM; for z-score: stronger effect = higher value

In the case of `O=c1[nH]c(/C=C/c2ccccc2OC(F)F)nc2c1cnn2-c1ccccc1`, the z-score is reported as -0.38 (inactive) and the cell count is reported as 2240 cells.
With `CCCC(=O)c1c(C)c2ccccc2n1C` the z-score was -0.38 (inactive) and the cell count was 3160 cells.
Compound `CCN1CCc2c(sc(NC(=O)Nc3ccc(Cl)c(Cl)c3)c2C(N)=O)C1` has a z-score of 8.59 and a cell count of 1910 cells.
In the case of `COc1cccc(/C=N/NC(=O)CCn2cnc3ccccc32)c1`, the z-score is reported as -0.33 (inactive) and the cell count is reported as 3250 cells.
In the case of `COc1ccc(Cl)cc1NC(=O)c1c(-c2ccccc2)noc1C`, the z-score is reported as -0.39 (inactive) and the cell count is reported as 3300 cells.
`CCC(C)N1C(=O)/C(=C/c2c(NCCCOC(C)C)nc3c(C)cccn3c2=O)SC1=S` (stereo not given) gave a z-score of 1.19 and a cell count of 2350 cells.
With `O=C1C=C(Nc2ccc(O)cc2)CC(c2ccco2)C1` (stereo not given) the z-score was -0.39 (inactive) and the cell count was 3020 cells.
For `CC1CCN(S(=O)(=O)c2ccc3c(c2)c(=O)c(C(=O)N2CCCCC2)cn3C)CC1`, the z-score was -0.33 (inactive) and the cell count was 2850 cells.
With `Cc1[nH]c2ccccc2c1/C=N/Nc1ccc([N+](=O)[O-])cc1` the z-score was 0.2 and the cell count was 1600 cells.
For `CC(=O)c1ccc2cccc3c2c1N=CN3C`, the z-score was -0.23 (inactive) and the cell count was 3230 cells.
In the case of `Nc1nnc(-c2cc3c(ccc4ccccc43)oc2=O)s1`, the z-score is reported as -0.23 (inactive) and the cell count is reported as 2510 cells.
For `COc1cccc(NC(=O)N2CCN(c3nnnn3-c3ccccc3)CC2)c1`, the z-score was -0.33 (inactive) and the cell count was 2880 cells.
With `Brc1ccc(Oc2nsnc2N2CCOCC2)cc1` the z-score was -0.34 (inactive) and the cell count was 3270 cells.
In the case of `O=C(CNC(=O)c1ccco1)OCC(=O)c1ccccc1`, the z-score is reported as -0.33 (inactive) and the cell count is reported as 3180 cells.
In the case of `Cc1cccc2sc(NC(=O)C3CCCN(S(=O)(=O)c4cccc5nonc45)C3)nc12` (stereo not given), the z-score is reported as -0.28 (inactive) and the cell count is reported as 3130 cells.
`Cc1n[nH]c(C)c1N1C(=O)c2cccc3c(N4CCCCCC4)ccc(c23)C1=O` showed a z-score of 0.33 and a cell count of 2690 cells.
In the case of `COc1cccc(S(=O)(=O)NCc2ccc(C(=O)Nc3ccc(Cl)c(Cl)c3)cc2)c1`, the z-score is reported as -0.33 (inactive) and the cell count is reported as 2580 cells.
In the case of `COc1cc2cc(C)c3nnc(SCC(=O)Nc4cc(C)on4)n3c2cc1OC`, the z-score is reported as -0.33 (inactive) and the cell count is reported as 2840 cells.
In the case of `OC1(c2cn(Cc3ccccc3)nn2)CCCCC1`, the z-score is reported as -0.33 (inactive) and the cell count is reported as 3100 cells.
With `COCCNC(=O)Cc1ccc(F)cc1` the z-score was -0.33 (inactive) and the cell count was 2820 cells.
For `CCOc1ccc(NC(=O)C2CCC(C)(C(=O)O)C2(C)C)cc1` (stereo not given), the z-score was -0.39 (inactive) and the cell count was 3170 cells.
With `CC(C)C(C)(C#N)NC(=O)CSc1nnc(C(F)(F)F)n1C` (stereo not given) the z-score was -0.33 (inactive) and the cell count was 3010 cells.
In the case of `Cn1c(C(=O)N2CCC(C(=O)N3CCN(Cc4ccc5c(c4)OCO5)CC3)CC2)cc2sccc21`, the z-score is reported as -0.39 (inactive) and the cell count is reported as 2820 cells.
For `Cc1ccn2c(NC3CCCCC3)c(C)nc2c1`, the z-score was -0.39 (inactive) and the cell count was 2990 cells.
With `CN1CCN(c2ccc(/C=C3\C(=O)NC(=S)N(c4cccc(Br)c4)C3=O)o2)CC1` the z-score was -0.26 (inactive) and the cell count was 3260 cells.
In the case of `CCCCN1C(=O)C2(NNc3ccccc3O2)c2ccccc21` (stereo not given), the z-score is reported as -0.31 (inactive) and the cell count is reported as 2820 cells.
For `O=C(NCCN1CCCC1)C1(S(=O)(=O)c2ccc(Cl)cc2)CC1`, the z-score was -0.33 (inactive) and the cell count was 2860 cells.
Compound `Nc1c(C(=O)c2cccs2)sc2nsc(SCCN3CCCCC3)c12` has a z-score of 0.3 and a cell count of 2930 cells.
For `CCCNC(=O)N1CCC(C(=O)c2ccc(Cl)cc2)CC1`, the z-score was -0.38 (inactive) and the cell count was 2970 cells.
For `CN(C)c1ccc(/C=C2\SC(=O)N(CC(O)Cn3c4ccccc4c4ccccc43)C2=O)cc1` (stereo not given), the z-score was -0.23 (inactive) and the cell count was 3020 cells.
`CCN(CC)c1ccc(/C=C2\SC(=O)N(C(C)C)C2=O)o1` gave a z-score of 0.48 and a cell count of 941 cells.
For `N#C/C(=C\C1=C(N2CCOCC2)C(=C\c2ccc(Cl)cc2)/CC1)C(=O)Nc1ccccc1F`, the z-score was -0.24 (inactive) and the cell count was 3010 cells.
In the case of `Nc1c(C(=O)O)sc2nc(-c3ccccc3)cc(-c3ccccc3)c12`, the z-score is reported as -0.28 (inactive) and the cell count is reported as 3320 cells.
In the case of `O=c1ccc(NS(=O)(=O)c2ccccc2)cn1Cc1ccc(Cl)c(Cl)c1`, the z-score is reported as -0.38 (inactive) and the cell count is reported as 3280 cells.
For `CC1CC(C)CN(C(=O)c2cccc3c2-c2ccccc2C3=O)C1` (stereo not given), the z-score was -0.38 (inactive) and the cell count was 3240 cells.
`CCOc1ccc(-c2c(C#N)c(N)nc3sc(C(=O)c4ccccc4)c(N)c23)cc1` showed a z-score of 0.98 and a cell count of 3090 cells.
For `Cc1ccccc1NCC(=O)N/N=C/c1c[nH]c2ccccc12`, the z-score was -0.33 (inactive) and the cell count was 2720 cells.
With `CN(c1cccc(Cl)c1)S(=O)(=O)c1cccc(C(=O)NC2=NCCS2)c1` the z-score was -0.33 (inactive) and the cell count was 3260 cells.
In the case of `CCOC(=O)N1CCN(S(=O)(=O)c2ccc3c(c2)oc(=O)n3C)CC1`, the z-score is reported as -0.31 (inactive) and the cell count is reported as 2780 cells.
For `COC1=CCC2([N+](=O)[O-])CN(CCO)CC1([N+](=O)[O-])C2` (stereo not given), the z-score was -0.33 (inactive) and the cell count was 3440 cells.
For `CC(C)(C)c1cc(C(=O)NCc2cccnc2)ccn1`, the z-score was -0.33 (inactive) and the cell count was 3450 cells.
In the case of `CN(C)/C=C1/Nc2ccccc2C1=O`, the z-score is reported as -0.36 (inactive) and the cell count is reported as 3060 cells.
In the case of `Cc1cccc(Oc2nccc(C(F)(F)F)c2C(=O)Nc2ccc(F)cc2F)c1`, the z-score is reported as -0.39 (inactive) and the cell count is reported as 3510 cells.
With `Nc1c(C(=O)C2CC2)sc2nc(-c3cccs3)cc(C(F)(F)F)c12` the z-score was 0.95 and the cell count was 2750 cells.
For `O=C1CCCC(O)=C1C=NCCc1ccccc1`, the z-score was -0.38 (inactive) and the cell count was 3080 cells.
With `CCn1cc(C(=O)NCCN(C)CCc2ccccc2)c(=O)c2cc(S(=O)(=O)N(C)C)ccc21` the z-score was -0.33 (inactive) and the cell count was 3360 cells.
For `CCCn1c(SCC(=O)NC2CCCCC2)nnc1-c1ccncc1`, the z-score was -0.25 (inactive) and the cell count was 2960 cells.
With `COc1ccccc1Nc1nc(Cl)c(C=O)s1` the z-score was -0.31 (inactive) and the cell count was 2970 cells.
In the case of `Cc1ccnc(N2C(=O)c3cccc4c([N+](=O)[O-])ccc(c34)C2=O)c1`, the z-score is reported as 0.09 and the cell count is reported as 350 cells.
For `CC(Sc1ccccc1)C(=O)NN=C1CCCCCC1` (stereo not given), the z-score was -0.39 (inactive) and the cell count was 2920 cells.
For `O=C(NCc1cn2ccccc2n1)c1ccco1`, the z-score was -0.33 (inactive) and the cell count was 3100 cells.
With `N#CC(C#N)=C1C=C2C=C(N3CCOCC3)CCC2CC1` (stereo not given) the z-score was 1.21 and the cell count was 3080 cells.
With `O=C(CCN1C(=O)/C(=C/c2cccs2)SC1=S)NNC(=O)c1cccc(O)c1` the z-score was -0.33 (inactive) and the cell count was 3190 cells.
For `N#C/C(=C/c1ccc(N2CCOCC2)o1)c1ccc(Br)cc1`, the z-score was 0.24 and the cell count was 555 cells.
With `CN1C2CCC1/C(=C/c1cccn1C)C(=O)/C2=C\c1cccn1C` the z-score was -0.29 (inactive) and the cell count was 3280 cells.
With `CC(C)C(c1nnnn1C1CCCC1)N1CCOCC1` (stereo not given) the z-score was -0.33 (inactive) and the cell count was 3180 cells.
For `Cc1cc(=O)oc2cc(OCC(=O)OCC(=O)NC3CC3)ccc12`, the z-score was -0.38 (inactive) and the cell count was 3150 cells.
With `O=C(C1=NN(c2ccccc2)C2C(=O)N(c3cccc(Cl)c3)C(=O)C12)c1ccccc1` (stereo not given) the z-score was -0.32 (inactive) and the cell count was 3140 cells.
Work on `CCN1C=CC2=C(C#N)C(N)C(C#N)(C#N)C(c3ccccc3C(F)(F)F)C2C1` (stereo not given) yielded a z-score of 0.77 and a cell count of 2720 cells.
`CC(C)OC(=O)CN1C(=O)S/C(=C/c2ccc(N3CCCCC3)o2)C1=O` gave a z-score of 0.56 and a cell count of 2120 cells.
With `CCOC(=O)/C(C#N)=C/C=C1\C=Cc2ccccc2N1CC` the z-score was -0.28 (inactive) and the cell count was 2720 cells.
Work on `CN1/C(=C\C=C2C(=O)NC(=S)NC2=O)C(C)(C)c2ccccc21` yielded a z-score of 3.61 and a cell count of 2700 cells.
In the case of `CCN1C(=O)CSc2ccc(C(=O)NCc3ccccc3OC)cc21`, the z-score is reported as -0.33 (inactive) and the cell count is reported as 2980 cells.
`CCOC(=O)CC1C(=O)NCCN1c1nc2ccc(C)cn2c(=O)c1/C=C1\SC(=S)N(CC(C)C)C1=O` (stereo not given) gave a z-score of 0.66 and a cell count of 3220 cells.
With `CC(C)CNC(=O)CSc1nnc(-c2cccc(S(=O)(=O)N3CCCCC3)c2)o1` the z-score was -0.39 (inactive) and the cell count was 2900 cells.
With `CCOc1ccc(CNC(=O)CCn2c(=O)oc3ccccc32)cc1` the z-score was -0.38 (inactive) and the cell count was 3060 cells.
For `CCN(CC)c1ccc2cc(C#N)c(=O)oc2c1`, the z-score was -0.32 (inactive) and the cell count was 3390 cells.
With `CC(NC(=O)/C(C#N)=C1\N=C(NC(=O)c2cccs2)c2ccccc21)c1ccccc1` (stereo not given) the z-score was -0.38 (inactive) and the cell count was 2810 cells.
In the case of `CCCS(=O)(=O)N1CCC(C(=O)N2CCOCC2)CC1`, the z-score is reported as -0.38 (inactive) and the cell count is reported as 2930 cells.
With `Cc1ccc(C(=O)NN2C(=O)/C(=C/c3cn(C)c4ccccc34)SC2=S)cc1` the z-score was -0.27 (inactive) and the cell count was 3060 cells.
For `NCC12CC3CC(C1)CC(CN)(C3)C2`, the z-score was -0.36 (inactive) and the cell count was 3300 cells.
In the case of `COC(=O)c1[nH]c2cccc(Cl)c2c1NC(=O)CN(C)C1CCCCC1`, the z-score is reported as -0.33 (inactive) and the cell count is reported as 3280 cells.
For `CCCCn1c(=O)[nH]c2nc3cc(N)ccc3nc2c1=O`, the z-score was -0.32 (inactive) and the cell count was 3540 cells.
With `O=S(=O)(Nc1cc2nc3ccccc3nc2n1Cc1ccccc1)c1ccc(Cl)cc1` the z-score was 0.09 and the cell count was 777 cells.
In the case of `Cc1cc(NC(=S)N(Cc2ccc(Br)cc2)Cc2ccc(C(=O)O)cc2)ccc1Cl`, the z-score is reported as -0.38 (inactive) and the cell count is reported as 2830 cells.
For `COC(=O)c1c(NC(=O)CC2Nc3cc(C)c(C)cc3NC2=O)sc(C)c1C` (stereo not given), the z-score was -0.38 (inactive) and the cell count was 3120 cells.
`CCCC1C2CN(C(C)C)CC=C2C(C#N)=C(N)C1(C#N)C#N` (stereo not given) showed a z-score of 0.45 and a cell count of 2800 cells.
With `N#C/C(=C\c1ccc(-c2ccc(C(=O)O)cc2)o1)c1nc2ccccc2[nH]1` the z-score was -0.29 (inactive) and the cell count was 3280 cells.
In the case of `CCCN1CC=C2C(C#N)=C(N)C(C#N)(C#N)C(c3cccc(OC)c3OC)C2C1` (stereo not given), the z-score is reported as 0.21 and the cell count is reported as 3050 cells.
For `COc1cc(OC)cc(C(=O)Nc2cccc(C(C)=O)c2)c1`, the z-score was -0.39 (inactive) and the cell count was 3260 cells.
